In patent US10875876B2, “Cyclized sulfamoylarylamide derivatives and the use thereof as medicaments for the treatment of hepatitis B” (priority 2015, dated 2020):
Like-named read-outs stand apart in the source and are kept apart here.

Key:
HBV = test: anti HBV activity, HepG2.117 cell line, intracellular HBV DNA by realtime PCR; format: cell-based; conditions: HepG2.117 cell line (Tet-off), 3 days of treatment, intracellular HBV DNA quantified by realtime PCR, read-out: HBV-AVE-HepG2.117 EC50
Summary of the method: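 HepG2.117 cells, a Tet-off line that replicates HBV without doxycycline, were induced and then treated in duplicate with serially diluted compound. After 3 days, intracellular HBV DNA was quantified by real-time PCR with an HBV-specific primer set and probe.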

[1] = Cytotoxicity in HepG2 cells, Resazurin assay; conditions: human, HepG2 cells, TOX-HepG2-4 d CC50 (μM), HepG2 cells incubated for 4 days, viability by Resazurin assay
[2] = Hepatitis B virus, HepG2.117, 72 h

Structure (SMILES) | EC50 (HBV; [2]) [nM] | CC50 at 4 days [1] [µM] | EC50 (HBV) [nM]
Cn1cc2c(c1C(=O)Nc1ccc(F)c(Cl)c1)OCC1(CCOC1)NS2(=O)=O (racemic) [Compound 212, N-(3-chloro-4-fluoro-phenyl)-7-methyl-1,1-dioxo-spiro[2,4-dihydropyrrolo[3,4-b][1,4,5]oxathiazepine-3,3′-tetrahydrofuran]-6-carboxamide] | 7 | > 25 | 
Cn1cc2c(c1C(=O)Nc1ccc(F)c(C(F)F)c1)OC[C@H](C(C)(C)O)NS2(=O)=O [Compound 100, (3R)—N-[3-(difluoromethyl)-4-fluoro-phenyl]-3-(1-hydroxy-1-methyl-ethyl)-7-methyl-1,1-dioxo-3,4-dihydro-2H-pyrrolo[3,4-b][1,4,5]oxathiazepine-6-carboxamide] | 3 | > 25 | 
CN1CCC(C2COc3c(cn(C)c3C(=O)Nc3ccc(F)c(F)c3)S(=O)(=O)N2)CC1 (stereo not shown) [Compound 76, N-(3,4-difluorophenyl)-7-methyl-3-(1-methyl-4-piperidyl)-1,1-dioxo-3,4-dihydro-2H-pyrrolo[3,4-b][1,4,5]oxathiazepine-6-carboxamide] | 220 | > 25 | 
Cc1cc(CC2(C)COc3c(cn(C)c3C(=O)Nc3ccc(F)c(C(F)F)c3)S(=O)(=O)N2)n(C)n1 (single isomer, unassigned) [Compound 176a, N-[3-(difluoromethyl)-4-fluoro-phenyl]-3-[(2,5-dimethylpyrazol-3-yl)methyl]-3,7-dimethyl-1,1-dioxo-2,4-dihydropyrrolo[3,4-b][1,4,5]oxathiazepine-6-carboxamide] | 12 | > 25 | 
CC1NS(=O)(=O)c2cn(C)c(C(=O)Nc3ccc(F)c(F)c3)c2OC1C (stereo not shown) [Compound 28, N-(3,4-difluorophenyl)-3,4,7-trimethyl-1,1-dioxo-3,4-dihydro-2H-pyrrolo[3,4-b][1,4,5]oxathiazepine-6-carboxamide] | 890 | > 25 | 
CCC(O)[C@@H]1COc2c(cn(C)c2C(=O)Nc2ccc(F)c(F)c2)S(=O)(=O)N1 (single isomer, unassigned) [Compound 142a, N-(3,4-difluorophenyl)-3-(1-hydroxypropyl)-7-methyl-1,1-dioxo-3,4-dihydro-2H-pyrrolo[3,4-b][1,4,5]oxathiazepine-6-carboxamide] | 65 | > 25 | 
Cc1cc(CC2(C)COc3c(cn(C)c3C(=O)Nc3ccnc(Cl)c3)S(=O)(=O)N2)no1 (single isomer, unassigned) [Compound 213a, N-(2-chloro-4-pyridyl)-3,7-dimethyl-3-[(5-methylisoxazol-3-yl)methyl]-1,1-dioxo-2,4-dihydropyrrolo[3,4-b][1,4,5]oxathiazepine-6-carboxamide] |  | > 25 | 48
Cc1cc(NC(=O)c2c3c(cn2C)S(=O)(=O)N[C@@H](C(C)(C)O)CO3)ccc1F [Compound 195, (3R)—N-(4-fluoro-3-methyl-phenyl)-3-(1-hydroxy-1-methyl-ethyl)-7-methyl-1,1-dioxo-3,4-dihydro-2H-pyrrolo[3,4-b][1,4,5]oxathiazepine-6-carboxamide] | 7 | > 25 | 
C[C@H](O)[C@H]1C=Cc2c(cn(C)c2C(=O)Nc2ccc(F)c(C#N)c2)S(=O)(=O)N1 [Compound 87, (3R)—N-(3-cyano-4-fluoro-phenyl)-3-[(1S)-1-hydroxyethyl]-7-methyl-1,1-dioxo-2,3-dihydropyrrolo[3,4-f]thiazepine-6-carboxamide] | 18 | > 25 | 
Cn1cc2c(c1C(=O)Nc1ccc(F)c(F)c1)OC[C@@H](C(O)C1CC1)NS2(=O)=O (single isomer, unassigned) [Compound 92a] |  | > 24 | 31
C[C@H](O)[C@H]1CCc2c(cn(C)c2C(=O)Nc2cc(F)c(F)c(F)c2)S(=O)(=O)N1 [Compound 104, (3R)-3-[(1S)-1-hydroxyethyl]-7-methyl-1,1-dioxo-N-(3,4,5-trifluorophenyl)-2,3,4,5-tetrahydropyrrolo[3,4-f]thiazepine-6-carboxamide] | 7 | > 25 | 
CC1CCC/C=C\Cc2c(cn(C)c2C(=O)Nc2ccc(F)c(F)c2)S(=O)(=O)N1 (stereo not shown) [Compound 2a, 8Z—N-(3,4-difluorophenyl)-4,13-dimethyl-2,2-dioxo-2λ^6-thia-3,13-diazabicyclo[9.3.0]tetradeca-1(14),8,11-triene-12-carboxamide] | 280 | > 25 | 
C[C@H](O)[C@H]1C=Cc2c(cn(C)c2C(=O)Nc2ccc(F)c(C#N)c2F)S(=O)(=O)N1 [Compound 178, (3R)—N-(3-cyano-2,4-difluoro-phenyl)-3-[(1S)-1-hydroxyethyl]-7-methyl-1,1-dioxo-2,3-dihydropyrrolo[3,4-f]thiazepine-6-carboxamide] | 16 | > 25 | 
C[C@H](O)[C@H]1C=Cc2c(cn(C)c2C(=O)Nc2ccc(F)c(F)c2)S(=O)(=O)N1 [Compound 84, (3R)—N-(3,4-difluorophenyl)-3-[(1S)-1-hydroxyethyl]-7-methyl-1,1-dioxo-2,3-dihydropyrrolo[3,4-f]thiazepine-6-carboxamide] | 10 | > 25 | 
Cn1cc2c(c1C(=O)Nc1ccc(F)c(F)c1)OCC(C(O)c1cccnc1)NS2(=O)=O (stereo not shown) [Compound 95, N-(3,4-difluorophenyl)-3-[hydroxy(3-pyridyl)methyl]-7-methyl-1,1-dioxo-3,4-dihydro-2H-pyrrolo[3,4-b][1,4,5]oxathiazepine-6-carboxamide] | 22 | > 25 | 
Cn1cc2c(c1C(=O)Nc1ccc(F)c(C#N)c1)OCC(C)(CO)NS2(=O)=O (single isomer, unassigned) [Compound 210a, N-(3-cyano-4-fluoro-phenyl)-3-(hydroxymethyl)-3,7-dimethyl-1,1-dioxo-2,4-dihydropyrrolo[3,4-b][1,4,5]oxathiazepine-6-carboxamide] | 37 | > 25 | 
CC1CCC/C=C/Cc2c(cn(C)c2C(=O)Nc2ccc(F)c(F)c2)S(=O)(=O)N1 (stereo not shown) [Compound 2b, 8E-N-(3,4-difluorophenyl)-4,13-dimethyl-2,2-dioxo-2λ^6-thia-3,13-diazabicyclo[9.3.0]tetradeca-1(14),8,11-triene-12-carboxamide] | 490 | > 25 | 
Cn1cc2c(c1C(=O)Nc1cc(F)c(F)c(F)c1)CCC1(COC1)NS2(=O)=O [Compound 136, 7-methyl-1,1-dioxo-N-(3,4,5-trifluorophenyl)spiro[4,5-dihydro-2H-pyrrolo[3,4-f]thiazepine-3,3′-oxetane]-6-carboxamide] | 16 | > 25 | 
Cn1cc2c(c1C(=O)Nc1ccc(F)c(C(F)F)c1)CC[C@H](CO)NS2(=O)=O [Compound 184, (3R)—N-[3-(difluoromethyl)-4-fluoro-phenyl]-3-(hydroxymethyl)-7-methyl-1,1-dioxo-2,3,4,5-tetrahydropyrrolo[3,4-f]thiazepine-6-carboxamide] | 20 | > 25 | 
Cn1cc2c(c1C(=O)Nc1ccnc(Cl)c1)OCC(C)(CO)NS2(=O)=O (single isomer, unassigned) [Compound 204a, N-(2-chloro-4-pyridyl)-3-(hydroxymethyl)-3,7-dimethyl-1,1-dioxo-2,4-dihydropyrrolo[3,4-b][1,4,5]oxathiazepine-6-carboxamide] | > 125 | > 25 | 
C[C@H](O)[C@H]1COc2c(cn(C)c2C(=O)Nc2ccc(F)c(C#N)c2)S(=O)(=O)N1 [Compound 65, (3R)—N-(3-cyano-4-fluoro-phenyl)-3-[(1S)-1-hydroxyethyl]-7-methyl-1,1-dioxo-3,4-dihydro-2H-pyrrolo[3,4-b][1,4,5]oxathiazepine-6-carboxamide] | 7 | > 25 | 
Cc1c2c(c(C(=O)Nc3ccc(F)c(F)c3)n1C)CC[C@H](C)NS2(=O)=O [Compound 152, (3S)—N-(3,4-difluorophenyl)-3,7,8-trimethyl-1,1-dioxo-2,3,4,5-tetrahydropyrrolo[3,4-f]thiazepine-6-carboxamide] | 14 | > 25 | 
Cn1cc2c(c1C(=O)Nc1ccc(F)c(F)c1)OCC(C)(Cc1cccnc1)NS2(=O)=O (single isomer, unassigned) [Compound 199a, N-(3,4-difluorophenyl)-3,7-dimethyl-1,1-dioxo-3-(3-pyridylmethyl)-2,4-dihydropyrrolo[3,4-b][1,4,5]oxathiazepine-6-carboxamide] |  | > 25 | 30
Cn1cc2c(c1C(=O)Nc1ccc(F)c(F)c1)OCC(CO)NS2(=O)=O (stereo not shown) [Compound 83, N-(3,4-difluorophenyl)-3-(hydroxymethyl)-7-methyl-1,1-dioxo-3,4-dihydro-2H-pyrrolo[3,4-b][1,4,5]oxathiazepine-6-carboxamide] | 58 | > 25 | 
Cn1cc2c(c1C(=O)Nc1ccc(F)c(C#N)c1)CCC(C(F)(F)F)NS2(=O)=O (racemic) [Compound 60, N-(3-cyano-4-fluoro-phenyl)-7-methyl-1,1-dioxo-3-(trifluoromethyl)-2,3,4,5-tetrahydropyrrolo[3,4-f]thiazepine-6-carboxamide] | 13 | > 25 | 
Cn1cc2c(c1C(=O)Nc1ccc(F)c(F)c1)OCC(C(O)c1ccncc1)NS2(=O)=O (stereo not shown) [Compound 183, N-(3,4-difluorophenyl)-3-[hydroxy(4-pyridyl)methyl]-7-methyl-1,1-dioxo-3,4-dihydro-2H-pyrrolo[3,4-b][1,4,5]oxathiazepine-6-carboxamide] | 2 | > 25 | 
